Reference: ChEMBL document CHEMBL6087425, “Synthesis and evaluation of anti-Giardia activity of oseltamivir analogs” (Bioorg Med Chem Lett, 2025)

Tests used:
Giardia intestinalis [1] = assay: Anti-parasitic activity against Giardia intestinalis assemblage A ATCC 30957 trophozoites assessed as inhibition of cyst production incubated for 24 hrs; format: functional, organism-based; settings: Giardia duodenalis, assemblage A ATCC 30957, 24 h
Giardia intestinalis [2] = assay: Anti-parasitic activity against Giardia intestinalis assemblage A ATCC 30957 trophozoites assessed as inhibition of parasite growth incubated for 24 hrs; format: functional, organism-based; settings: Giardia duodenalis, assemblage A ATCC 30957, 24 h

Structure (SMILES)	IC50 (Giardia intestinalis [1]) [µM]	IC50 (Giardia intestinalis [2]) [µM]
CCC(CC)O[C@@H]1CC(C(=O)O)=C[C@H](N=[N+]=[N-])[C@H]1NC(C)=O	50	30
CCOC(=O)C1=C[C@H](NC(=O)CF)[C@@H](NC(C)=O)[C@H](OC(CC)CC)C1	41	54
Cc1ncc([N+](=O)[O-])n1CCO [METRONIDAZOLE]	4	4
CCOC(=O)C1=C[C@@H](OC(CC)CC)[C@H](NC(C)=O)[C@@H](N)C1 [OSELTAMIVIR]	46	> 120

The next lines start with results.

IC50 (Giardia intestinalis [1]) [µM]	Structure (SMILES)	IC50 (Giardia intestinalis [2]) [µM]
42	CCC(CC)O[C@@H]1CC(C(=O)O)=C[C@H](N)[C@H]1NC(C)=O	49
46	CCCC(=O)N[C@@H]1[C@@H](N=[N+]=[N-])C=C(C(=O)O)C[C@H]1OC(CC)CC	51
41	CCC(CC)O[C@@H]1CC(C(=O)O)=C[C@H](NC(C)=O)[C@H]1NC(C)=O	40
